Assay results from patent publication US12692264B2, “Pyrimidine or pyridine derivative, preparation method therefor, and application thereof in pharmacy” (ABBISKO THERAPEUTICS CO., LTD., priority 2021, dated 2026).

Tests used:
Assay type in all cases: cell-based
A431 (EGFR-WT) = test: Cell proliferation study (CellTiter-Glo, 72 hrs), A431; conditions: Homo sapiens, A-431, A431 cells, CTG, * = average of multiple measurements
In short: (§1)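 Cells were seeded overnight, then exposed for 72 hrs at 37 °C, 5% CO2 to 9 concentrations in 3.16-fold steps, 0.1% DMSO final, triplicate wells. Viability was read by CellTiter-Glo luminescence, with a T0 plate read at dosing. IC50 came from nonlinear sigmoidal dose-response fits.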

[1] = biological target: Ba/F3 EGFR-V769_D770insASV (Homo sapiens, UniProt P00533, DUP767-769, cells depend on it); test: Cell proliferation study (CellTiter-Glo, 72 hrs), Ba/F3 EGFR-V769_D770insASV; conditions: CTG, * = average of multiple measurements, read-out: Ba/F3 EGFR-V769_D770insASV IC50
In short: as §1

[2] = biological target: Ba/F3 EGFR-D770-N771ins_SVD (Homo sapiens, UniProt P00533, DUP768-770, cells depend on it); test: Cell proliferation study (CellTiter-Glo, 72 hrs), Ba/F3 EGFR-D770-N771ins_SVD; conditions: CTG, * = average of multiple measurements, read-out: Ba/F3 EGFR-D770-N771ins_SVD IC50
In short: as §1

Chain of Ba/F3 EGFR-D770-N771ins_SVD (P00533 with tags, fused parts or gaps DUP768-770): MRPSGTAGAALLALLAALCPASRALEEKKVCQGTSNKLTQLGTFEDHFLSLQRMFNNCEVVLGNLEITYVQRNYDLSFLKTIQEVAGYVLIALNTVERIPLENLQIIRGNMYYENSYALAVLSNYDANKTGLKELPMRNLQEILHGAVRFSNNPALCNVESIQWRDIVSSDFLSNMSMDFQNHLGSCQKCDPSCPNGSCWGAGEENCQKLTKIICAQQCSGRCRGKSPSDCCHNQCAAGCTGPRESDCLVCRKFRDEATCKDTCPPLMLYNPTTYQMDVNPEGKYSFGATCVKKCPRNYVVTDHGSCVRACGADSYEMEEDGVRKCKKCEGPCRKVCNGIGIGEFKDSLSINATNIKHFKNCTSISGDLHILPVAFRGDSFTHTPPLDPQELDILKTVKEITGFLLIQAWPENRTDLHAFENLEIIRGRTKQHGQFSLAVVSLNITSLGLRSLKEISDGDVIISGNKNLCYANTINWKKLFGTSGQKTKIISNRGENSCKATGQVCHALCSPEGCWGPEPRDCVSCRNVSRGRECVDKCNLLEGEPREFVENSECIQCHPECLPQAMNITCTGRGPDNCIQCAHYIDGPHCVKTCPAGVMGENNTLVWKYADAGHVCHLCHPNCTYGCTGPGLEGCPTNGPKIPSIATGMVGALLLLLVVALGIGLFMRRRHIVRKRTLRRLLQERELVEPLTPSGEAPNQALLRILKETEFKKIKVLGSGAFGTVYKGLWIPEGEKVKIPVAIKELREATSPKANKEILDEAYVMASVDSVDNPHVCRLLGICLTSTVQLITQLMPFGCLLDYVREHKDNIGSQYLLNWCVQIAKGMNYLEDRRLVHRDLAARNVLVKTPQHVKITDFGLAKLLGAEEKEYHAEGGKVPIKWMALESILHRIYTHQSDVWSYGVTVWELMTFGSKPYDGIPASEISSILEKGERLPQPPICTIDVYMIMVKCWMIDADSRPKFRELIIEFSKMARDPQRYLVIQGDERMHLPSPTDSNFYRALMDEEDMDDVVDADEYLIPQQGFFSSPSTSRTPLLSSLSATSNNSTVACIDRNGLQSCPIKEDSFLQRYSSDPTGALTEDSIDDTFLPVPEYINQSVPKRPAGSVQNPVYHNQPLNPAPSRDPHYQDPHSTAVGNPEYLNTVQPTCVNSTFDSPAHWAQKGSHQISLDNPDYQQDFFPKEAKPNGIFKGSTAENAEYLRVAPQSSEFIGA
Chain of Ba/F3 EGFR-V769_D770insASV (P00533 with tags, fused parts or gaps DUP767-769): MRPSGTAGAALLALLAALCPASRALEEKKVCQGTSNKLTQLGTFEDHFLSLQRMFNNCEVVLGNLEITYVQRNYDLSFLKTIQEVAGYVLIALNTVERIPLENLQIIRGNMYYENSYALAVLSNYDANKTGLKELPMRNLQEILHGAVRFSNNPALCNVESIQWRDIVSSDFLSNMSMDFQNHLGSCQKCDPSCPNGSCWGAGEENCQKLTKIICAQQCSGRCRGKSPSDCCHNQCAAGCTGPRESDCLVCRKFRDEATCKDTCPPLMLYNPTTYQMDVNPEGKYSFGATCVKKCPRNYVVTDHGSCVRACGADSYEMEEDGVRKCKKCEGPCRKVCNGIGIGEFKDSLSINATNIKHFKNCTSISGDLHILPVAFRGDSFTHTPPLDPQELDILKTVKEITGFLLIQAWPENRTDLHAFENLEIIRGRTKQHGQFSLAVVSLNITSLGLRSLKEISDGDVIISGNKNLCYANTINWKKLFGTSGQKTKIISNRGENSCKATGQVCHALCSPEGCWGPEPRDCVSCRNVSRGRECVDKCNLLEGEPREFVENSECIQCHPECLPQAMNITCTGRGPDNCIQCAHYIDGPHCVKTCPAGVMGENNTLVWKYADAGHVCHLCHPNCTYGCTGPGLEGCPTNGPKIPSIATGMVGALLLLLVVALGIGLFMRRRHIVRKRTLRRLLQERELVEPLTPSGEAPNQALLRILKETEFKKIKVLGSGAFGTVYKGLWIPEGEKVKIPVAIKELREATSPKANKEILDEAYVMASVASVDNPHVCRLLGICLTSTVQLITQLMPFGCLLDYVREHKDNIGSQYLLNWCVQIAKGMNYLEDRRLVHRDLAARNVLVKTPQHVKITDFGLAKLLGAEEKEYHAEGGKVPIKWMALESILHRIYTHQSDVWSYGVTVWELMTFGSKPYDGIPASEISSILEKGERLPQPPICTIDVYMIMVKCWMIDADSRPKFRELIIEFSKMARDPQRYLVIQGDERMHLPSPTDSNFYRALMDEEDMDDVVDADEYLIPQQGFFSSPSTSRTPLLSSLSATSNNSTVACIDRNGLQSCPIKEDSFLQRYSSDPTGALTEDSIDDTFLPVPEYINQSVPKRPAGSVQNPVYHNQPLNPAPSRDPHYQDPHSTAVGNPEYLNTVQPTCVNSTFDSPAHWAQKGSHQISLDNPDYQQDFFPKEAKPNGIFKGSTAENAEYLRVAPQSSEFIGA

| SMILES | IC50 (A431 (EGFR-WT)) [nM] | GI50 [1] [nM] | GI50 [2] [nM] |
| --- | --- | --- | --- |
| [2H]C1([2H])N(c2nc(Nc3cc(NC(=O)C=C)c(N4C[C@@H](F)C[C@@H]4CN(C)C)cc3OC)ncc2C(=O)OC(C)C)c2ccc(C)nc2C1(C)C [Example 82, isopropyl 2-((5-acrylamido-4-((2R,4S)-2-((di-methylamino)methyl)-4-fluoro-pyrrolidin-1-yl)-2-methoxy-phenyl)amino)-4-(3,3,5-trimethyl-2,3-dihydro-1H-pyrrolo[3,2-b]pyridin-1-yl-2,2-d2)pyrimidine-5-carboxylate] | 76 | 12.9 | 11.2 |
| C=CC(=O)Nc1cc(Nc2ncc(C(=O)OC(C)C)c(N3CC(C)(C)c4nc(C)ccc43)n2)c(OC)cc1N1CC[C@@H](N(C)C)C1 [Example 12, isopropyl (R)-2-((5-acrylamido-4-(3-(dimethyl-amino)pyrrolidin-1-yl)-2-methoxy-phenyl)amino)-4-(3,3,5-trimethyl-2,3-dihydro-1H-pyrrolo[3,2-b]pyridin-1-yl)pyrimidine-5-carboxylate] | 599 | 36.9 | 18.5 |
| [2H]C1([2H])N(c2nc(Nc3cc(NC(=O)C=C)c(N(C)C[C@@H]4CCCN4C)cc3OC)ncc2C(=O)OC(C)C)c2ccc(C)nc2C1(C)C [Example 52, isopropyl (S)-2-((5-acrylamido-2-methoxy-4-(methyl((1-methylpyrrolidin-2-yl)methyl)amino)phenyl)amino)-4-(3,3,5-trimethyl-2,3-dihydro-1H-pyrrolo[3,2-b]pyridin-1-yl-2,2-d2)pyrimidine-5-carboxylate] | 185 | 61.9 | 24.1 |
| C=CC(=O)Nc1cc(Nc2ncc(C(=O)OC(C)C)c(N3CC4(CC4)c4nc(C)ccc43)n2)c(OC)cc1N(C)CCNC [Example 25, isopropyl 2-((5-acrylamido-2-methoxy-4-(methyl(2-(methylamino)ethyl)ami-no)phenyl)amino)-4-(5′-methyl-spiro(cyclopropane-1,3′-pyrrolo[3,2-b]pyridin)-1′(2′H)-yl)pyrimidine-5-carboxylate] | 222 | 53.8 | 34.2 |
| C=CC(=O)Nc1cc(Nc2ncc(C(=O)OC(C)C)c(N3CC(C)(C)c4nc(C)ccc43)n2)c(OC)cc1N(C)CCN(CC)CC [Example 56, isopropyl 2-((5-acrylamido-4-((2-(diethylami-no)ethyl)(methyl)amino)-2-methoxy-phenyl)amino)-4-(3,3,5-trimethyl-2,3-dihydro-1H-pyrrolo[3,2-b]pyridin-1-yl)pyrimidine-5-carboxylate] | 301 | 91.1 | 33.5 |
| C=CC(=O)Nc1cc(Nc2ncc(C(=O)OC(C)C)c(N3CC(C)(C)c4ccccc43)n2)c(OC)cc1N(C)CCN(C)C [Example 85, isopropyl 2-((5-acrylamido-4-((2-(dimethylami-no)ethyl)(methyl)amino)-2-methoxy-phenyl)amino)-4-(3,3-dimethylindolin-1-yl)pyrimidine-5-carboxylate] | 561 | 13.8 | 23.6 |
| [2H]C([2H])([2H])N(CCN(C)C)c1cc(OC)c(Nc2ncc(C(=O)OC(C)C)c(N3CC(C)(C)c4nc(C)ccc43)n2)cc1NC(=O)C=C [Example 36, isopropyl 2-((5-acrylamido-4-((2-(dimethylami-no)ethyl)(methyl-d3)amino)-2-methoxy-phenyl)amino)-4-(3,3,5-trimethyl-2,3-dihydro-1H-pyrrolo[3,2-b]pyridin-1-yl)pyrimidine-5-carboxylate] | 353 | 22.8 | 14.8 |
| C=CC(=O)Nc1cc(Nc2ncc(C(=O)OC(C)C)c(N3CC(C)(C)c4nc(C)ccc43)n2)c(OC)nc1N(C)CCN(C)C [Example 29, isopropyl 2-((5-acrylamido-6-((2-(dimethylami-no)ethyl)(methyl)amino)-2-methoxy-pyridin-3-yl)amino)-4-(3,3,5-trimethyl-2,3-dihydro-1H-pyrrolo[3,2-b]pyridin-1-yl)pyrimidine-5-carboxylate] | 282 | 16 | 13.3 |
